Data as given in US11981680B2, “Substituted thienopyrroles as PAD4 inhibitors” (BRISTOL-MYERS SQUIBB COMPANY, priority 2018, dated 2024).

Target: human PAD4 (hPAD4) (Homo sapiens (Human), UniProt Q9UM07)
Assay: RFMS Human PAD4 Functional Assay
Format: biochemical
Details: rapid-fire mass spectrum (RFMS) assay; 5 nM hPAD4 enzyme, 250 μM BAEE, 30 min preincubation at 37° C.
Procedure: Compounds of the present invention were assayed as inhibitors of PAD4 using the assay protocol described below.
RFMS Human PAD4 Functional Assay:
Compounds were solubilized in 100% DMSO to achieve a10 mM compound concentration. Compound stock solutions were stored at RT. A series of dilutions were prepared in DMSO and mixed 8 times with 20 μL mixing volume. Final top concentration of compound in the assay is 50 μM. Final assay conditions were as follows: • Reaction volume: 26 μl • Assay buffer: 25 mM hepes, pH 7.5, 5 mM NaCl, 1 mM DTT, 0.2 mg/ml BSA, 0.01% CHAPS, 50 μM Calcium, and 5 μM TPEN • Final concentrations: 5 nM hPAD4 enzyme, 250 μM BAEE, and 0.5% DMSO • Total incubation time: 30 mins compound and enzyme preincubation at 37° C., 90 min enzyme/substrate reaction, 30 min reaction with phenyl glyoxal at 37° C. • Stop solution: 40 μl 5% TCA in ACN
0.13 μL of compound solution was added to 13 μL of 10 nM PAD4 in assay buffer. After 30 min 13 μl of 500 μM of BAEE was added in 25 mM hepes, pH 7.5, 5 mM NaCl, 1 mM DTT, 0.2 mg/ml BSA, 0.01% CHAPS, 50 μM Calcium, 5 μM TPEN was added and the reaction incubated for 90 min at 37° C. The enzymatic reaction was quenched by addition of 15 μl of 6.1N TCA, 100% Final Concentration is 20%, 35 μl of 8.5 mM phenyl glyoxal (final concentration 4 mM) is then added and the reaction is incubated for 30 min at 37° C.
After 30 minutes the plates are spun down to remove all precipitate. The enzyme reaction was quenched with an equal volume of methanol containing internal standard (modified citrulline). Samples were loaded onto the Rapid Fire RF300 system (Agilent) wherein they were first sipped for 1000 ms and then directly loaded to a C18 separations cartridge using a mixture of acetonitrile containing 0.01% formic acid for 3000 ms desalting. The flow rate of the mobile phase was 1.5 ml/min. Once the samples were eluted from the cartridge, a mobile phase of acetonitrile containing 0.01% formic acid was used to move the samples into the mass spectrometer for 4000 ms at a flow rate of 1.25 ml/min/Sciex API5500 triple quadrupole mass spectrometer (Applied Biosystems) equipped with ESI was used to analyze the peptidyl citrulline and internal standard ions.
MRM transition of product and internal standard were monitored at m/z 424.5 to 350.4 and m/z 293 to 247 respectively. The dwell time for each transition was set at 200 ms, and the ESI voltage was used at 5500 with a source temperature of 400° C. Extracted ion peaks for each transition were integrated using the Rapid Fire Integrator software. Peak area of analyte was normalized with internal standard.).

human PAD4 (hPAD4), sequence (Q9UM07 whole entry): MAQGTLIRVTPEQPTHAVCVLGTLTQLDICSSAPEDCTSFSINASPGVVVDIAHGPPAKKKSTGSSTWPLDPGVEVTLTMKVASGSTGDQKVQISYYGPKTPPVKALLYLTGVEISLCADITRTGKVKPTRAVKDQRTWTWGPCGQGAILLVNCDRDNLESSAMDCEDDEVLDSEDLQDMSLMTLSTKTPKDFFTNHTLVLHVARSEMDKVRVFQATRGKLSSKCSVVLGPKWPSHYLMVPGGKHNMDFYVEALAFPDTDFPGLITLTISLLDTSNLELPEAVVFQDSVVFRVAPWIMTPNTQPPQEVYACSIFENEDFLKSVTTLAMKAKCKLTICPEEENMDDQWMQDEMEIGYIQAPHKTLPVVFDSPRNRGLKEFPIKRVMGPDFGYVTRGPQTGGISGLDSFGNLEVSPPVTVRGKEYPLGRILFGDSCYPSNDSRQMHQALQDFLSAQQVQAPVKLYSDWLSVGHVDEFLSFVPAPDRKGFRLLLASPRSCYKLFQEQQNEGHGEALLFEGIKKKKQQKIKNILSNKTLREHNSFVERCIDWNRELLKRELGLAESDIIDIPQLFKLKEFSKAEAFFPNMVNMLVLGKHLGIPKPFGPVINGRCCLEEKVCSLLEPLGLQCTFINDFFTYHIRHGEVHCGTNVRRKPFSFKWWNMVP

Structure (SMILES)	IC50 [nM]
COc1cc(C(=O)N2C[C@H]3CC[C@@H]2[C@@H]3N)cc2nc(-c3cc4scc(C5CCC(O)CC5)c4n3CC3CC3)n(C)c12 (mixture of isomers) [Example 10, cis/trans-((1R,4R,7R)-7-amino-2-azabicyclo[2.2.1]heptan-2-yl)(2-(4-(cyclopropylmethyl)-3-(4-hydroxycyclohexyl)-4H-thieno[3,2-b]pyrrol-5-yl)-7-methoxy-1-methyl-1H-benzo[d]imidazol-5-yl)methanone]	46
COc1cc(C(=O)N2C[C@H]3CC[C@@H]2[C@@H]3N)cc2nc(-c3cc4scc(-c5cc[nH]n5)c4n3CC3CC3)n(C)c12 [Example 40, ((1R,4R,7R)-7-amino-2-azabicyclo[2.2.1]heptan-2-yl)(2-(4-(cyclopropylmethyl)-3-(1H-pyrazol-3-yl)-4H-thieno[3,2-b]pyrrol-5-yl)-7-methoxy-1-methyl-1H-benzo[d]imidazol-5-yl)methanone]	24
COc1cc(C(=O)N2C[C@H](N)C[C@@H](F)C2)cc2nc(-c3cc4scc(Br)c4n3CC3CC3)n(C)c12 [Example 31, ((3R,5R)-3-amino-5-fluoropiperidin-1-yl)(2-(3-bromo-4-(cyclopropylmethyl)-4H-thieno[3,2-b]pyrrol-5-yl)-7-methoxy-1-methyl-1H-benzo[d]imidazol-5-yl)methanone]	60
COc1cc(C(=O)N2C[C@H]3CC[C@@H]2[C@@H]3N)cc2nc(-c3cc4scc(-c5cnn(CC(F)F)c5)c4n3CC3CC3)n(C)c12 [Example 43, ((1R,4R,7R)-7-amino-2-azabicyclo[2.2.1]heptan-2-yl)(2-(4-(cyclopropylmethyl)-3-(1-(2,2-difluoroethyl)-1H-pyrazol-4-yl)-4H-thieno[3,2-b]pyrrol-5-yl)-7-methoxy-1-methyl-1H-benzo[d]imidazol-5-yl)methanone]	51
COc1cc(C(=O)N2C[C@H]3CC[C@@H]2[C@@H]3N)cc2nc(-c3cc4scc(CC5CNC5)c4n3CC3CC3)n(C)c12 [Example 18, ((1R,4R,7R)-7-amino-2-azabicyclo[2.2.1]heptan-2-yl)(2-(3-(azetidin-3-ylmethyl)-4-(cyclopropylmethyl)-4H-thieno[3,2-b]pyrrol-5-yl)-7-methoxy-1-methyl-1H-benzo[d]imidazol-5-yl)methanone]	165
COc1cc(C(=O)N2C[C@H]3CC[C@@H]2[C@@H]3N)cc2nc(-c3cc4scc(CCN5CCOC5=O)c4n3CC3CC3)n(C)c12 [Example 13, 3-(2-(5-(5-((1R,4R,7R)-7-amino-2-azabicyclo[2.2.1]heptane-2-carbonyl)-7-methoxy-1-methyl-1H-benzo[d]imidazol-2-yl)-4-(cyclopropylmethyl)-4H-thieno[3,2-b]pyrrol-3-yl)ethyl)oxazolidin-2-one]	54
COc1cc(C(=O)N2C[C@H]3CC[C@@H]2[C@@H]3N)cc2nc(-c3cc4scc(C5CNC5)c4n3CC3CC3)n(C)c12 [Example 16, ((1R,4R,7R)-7-amino-2-azabicyclo[2.2.1]heptan-2-yl)(2-(3-(azetidin-3-yl)-4-(cyclopropylmethyl)-4H-thieno[3,2-b]pyrrol-5-yl)-7-methoxy-1-methyl-1H-benzo[d]imidazol-5-yl)methanone]	127
COc1cc(C(=O)N2C[C@H]3CC[C@@H]2[C@@H]3N)cc2nc(-c3cc4scc(-c5cccs5)c4n3CC3CC3)n(C)c12 [Example 38, ((1R,4R,7R)-7-amino-2-azabicyclo[2.2.1]heptan-2-yl)(2-(4-(cyclopropylmethyl)-3-(thiophen-2-yl)-4H-thieno[3,2-b]pyrrol-5-yl)-7-methoxy-1-methyl-1H-benzo[d]imidazol-5-yl)methanone]	100
COc1cc(C(=O)N2C[C@H]3CC[C@@H]2[C@@H]3N)cc2nc(-c3cc4scc(Br)c4n3CC3CC3)n(C)c12 [Example 1, ((1R,4R,7R)-7-amino-2-azabicyclo[2.2.1]heptan-2-yl)(2-(3-bromo-4-(cyclopropylmethyl)-4H-thieno[3,2-b]pyrrol-5-yl)-7-methoxy-1-methyl-1H-benzo[d]imidazol-5-yl)methanone]	35
COc1cc(C(=O)N2C[C@H]3CC[C@@H]2[C@@H]3N)cc2nc(-c3cc4scc(-c5cnn(C)c5)c4n3CC3CC3)n(C)c12 [Example 32, ((1R,4R,7R)-7-amino-2-azabicyclo[2.2.1]heptan-2-yl)(2-(4-(cyclopropylmethyl)-3-(1-methyl-1H-pyrazol-4-yl)-4H-thieno[3,2-b]pyrrol-5-yl)-7-methoxy-1-methyl-1H-benzo[d]imidazol-5-yl)methanone]	17
COc1cc(C(=O)N2C[C@H]3CC[C@@H]2[C@@H]3N)cc2nc(-c3cc4sc(-c5ccncc5)cc4n3CC3CC3)n(C)c12 [Example 25, ((1R,4R,7R)-7-Amino-2-azabicyclo[2.2.1]heptan-2-yl)(2-(4-(cyclopropylmethyl)-2-(pyridin-4-yl)-4H-thieno[3,2-b]pyrrol-5-yl)-7-methoxy-1-methyl-1H-benzo[d]imidazol-5-yl)methanone]	179
COc1cc(C(=O)N2C[C@H]3CC[C@@H]2[C@@H]3N)cc2nc(-c3cc4scc(C5CN(C(C)=O)C5)c4n3CC3CC3)n(C)c12 [Example 23, 1-(3-(5-(5-((1R,4R,7R)-7-amino-2-azabicyclo[2.2.1]heptane-2-carbonyl)-7-methoxy-1-methyl-1H-benzo[d]imidazol-2-yl)-4-(cyclopropylmethyl)-4H-thieno[3,2-b]pyrrol-3-yl)azetidin-1-yl)ethan-1-one]	55

Now from value to compound:

IC50 [nM]	Structure (SMILES)
48	COc1cc(C(=O)N2C[C@H]3CC[C@@H]2[C@@H]3N)cc2nc(-c3cc4scc(-c5ccn(C(C)C)n5)c4n3CC3CC3)n(C)c12 [Example 34, ((1R,4R,7R)-7-amino-2-azabicyclo[2.2.1]heptan-2-yl)(2-(4-(cyclopropylmethyl)-3-(1-isopropyl-1H-pyrazol-3-yl)-4H-thieno[3,2-b]pyrrol-5-yl)-7-methoxy-1-methyl-1H-benzo[d]imidazol-5-yl)methanone]
67	COc1cc(C(=O)N2C[C@H](N)C[C@@H](F)C2)cc2nc(-c3cc4sc(C)cc4n3CC3CC3)n(C)c12 [Example 28, ((3R,5R)-3-amino-5-fluoropiperidin-1-yl)(2-(4-(cyclopropylmethyl)-2-methyl-4H-thieno[3,2-b]pyrrol-5-yl)-7-methoxy-1-methyl-1H-benzo[d]imidazol-5-yl)methanone]
113	COc1cc(C(=O)N2C[C@H]3CC[C@@H]2[C@@H]3N)cc2nc(-c3cc4scc(-c5cccn5C)c4n3CC3CC3)n(C)c12 [Example 44, ((1R,4R,7R)-7-amino-2-azabicyclo[2.2.1]heptan-2-yl)(2-(4-(cyclopropylmethyl)-3-(1-methyl-1H-pyrrol-2-yl)-4H-thieno[3,2-b]pyrrol-5-yl)-7-methoxy-1-methyl-1H-benzo[d]imidazol-5-yl)methanone]
50	COc1cc(C(=O)N2C[C@H](N)C[C@@H](F)C2)cc2nc(-c3cc4scc(-c5cnn(C)c5)c4n3CC3CC3)n(C)c12 [Example 33, ((3R,5R)-3-amino-5-fluoropiperidin-1-yl)(2-(4-(cyclopropylmethyl)-3-(1-methyl-1H-pyrazol-4-yl)-4H-thieno[3,2-b]pyrrol-5-yl)-7-methoxy-1-methyl-1H-benzo[d]imidazol-5-yl)methanone]
53	COc1cc(C(=O)N2C[C@H]3CC[C@@H]2[C@@H]3N)cc2nc(-c3cc4scc(-c5ccnn5C)c4n3CC3CC3)n(C)c12 [Example 45, ((1R,4R,7R)-7-amino-2-azabicyclo[2.2.1]heptan-2-yl)(2-(4-(cyclopropylmethyl)-3-(1-methyl-1H-pyrazol-5-yl)-4H-thieno[3,2-b]pyrrol-5-yl)-7-methoxy-1-methyl-1H-benzo[d]imidazol-5-yl)methanone]
86	COc1cc(C(=O)N2C[C@H](N)C[C@@H](F)C2)cc2nc(-c3cc4sccc4n3CC3CC3)n(C)c12 [Example 30, ((3R,5R)-3-amino-5-fluoropiperidin-1-yl)(2-(4-(cyclopropylmethyl)-4H-thieno[3,2-b]pyrrol-5-yl)-7-methoxy-1-methyl-1H-benzo[d]imidazol-5-yl)methanone]
